The values that follow come from ChEMBL document CHEMBL1146832, “N-Benzylindole-2-carboxylic acids: potent functional antagonists of the CCR2b chemokine receptor” (Bioorg Med Chem Lett, 2004).

This test deals with C-C chemokine receptor type 2 (Homo sapiens, UniProt P41597). Nature of the test: Inhibition of human C-C chemokine receptor type 2.

Each structure is given as a SMILES string.

Sequence of C-C chemokine receptor type 2 (P41597 whole entry): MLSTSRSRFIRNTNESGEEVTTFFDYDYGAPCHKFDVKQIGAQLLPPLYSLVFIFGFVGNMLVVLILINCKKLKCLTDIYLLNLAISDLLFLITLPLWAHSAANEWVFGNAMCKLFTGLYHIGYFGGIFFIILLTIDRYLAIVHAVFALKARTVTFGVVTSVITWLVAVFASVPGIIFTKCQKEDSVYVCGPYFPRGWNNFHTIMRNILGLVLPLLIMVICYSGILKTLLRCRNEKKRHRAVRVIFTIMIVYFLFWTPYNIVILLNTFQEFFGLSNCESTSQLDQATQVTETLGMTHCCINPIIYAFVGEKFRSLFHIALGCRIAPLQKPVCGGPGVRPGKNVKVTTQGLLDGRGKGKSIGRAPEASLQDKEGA

A word on the IC50: it is the concentration at which inhibition is half-maximal. `Nc1ccc2c(c1)cc(C(=O)O)n2Cc1ccc(Cl)c(Cl)c1` displayed an IC50 of 0.5 µM. In the case of `O=C(O)c1cc2ccccc2n1Cc1ccc(Cl)c(Cl)c1` it was 0.23 µM. The result for `COc1cccc2cc(C(=O)O)n(Cc3ccc(Cl)c(Cl)c3)c12` reads 1.21 µM; that for `O=C(O)c1cc2ccc(Cl)cc2n1Cc1ccc(Cl)c(Cl)c1`, 0.34 µM; that for `Nc1ccc2cc(C(=O)O)n(Cc3ccc(Cl)c(Cl)c3)c2c1`, 12.6 µM.

Regarding `O=C(O)c1cc2ccc(C(F)(F)F)cc2n1Cc1ccc(Cl)c(Cl)c1`, the midpoint of inhibition, the IC50, lay at 1.05 µM. The result for `O=C(O)c1cc2ccccc2n1Cc1ccc(Cl)cc1` reads 1.36 µM; that for `O=C(O)c1cc2c(Cl)cccc2n1Cc1ccc(Cl)c(Cl)c1`, 0.15 µM; that for `O=C(O)c1cc2c([N+](=O)[O-])cccc2n1Cc1ccc(Cl)c(Cl)c1`, 1.31 µM.

`O=C(O)c1cc2ccc([N+](=O)[O-])cc2n1Cc1ccc(Cl)c(Cl)c1` displayed a half-maximal inhibitory concentration (IC50) of 1.64 µM. In the case of `COc1c(C(=O)O)n(Cc2ccc(Cl)c(Cl)c2)c2ccccc12` it was 0.77 µM; in that of `O=C(O)c1c(C(=O)O)n(Cc2ccc(Cl)c(Cl)c2)c2ccccc12`, 0.096 µM. Compound `O=C(O)c1cc2ccccc2n1C(=O)c1ccc(Cl)c(Cl)c1` yielded an IC50 of more than 50 µM. For `COc1ccc2cc(C(=O)O)n(Cc3ccc(Cl)c(Cl)c3)c2c1`, the IC50 was 2.3 µM. The result for `O=C(O)c1cc2cccc(F)c2n1Cc1ccc(Cl)c(Cl)c1` reads 0.125 µM.

With `O=C(O)c1cc2ccccc2n1S(=O)(=O)c1ccc(Cl)c(Cl)c1`, the half-inhibitory concentration (IC50) turned out to be 1.02 µM. This IC50 lies about 8.2-fold higher than the previous one.

`CS(=O)(=O)NC(=O)c1cc2ccccc2n1Cc1ccc(Cl)c(Cl)c1` gave a concentration for half-maximal inhibition (IC50) of 6.09 µM. Compared with the last compound, the IC50 is about 6-fold higher. In the case of `CS(=O)(=O)c1ccc2c(c1)cc(C(=O)O)n2Cc1ccc(Cl)c(Cl)c1`, 2.2 µM corresponded to half-maximal inhibition (IC50). This IC50 is about 2.8-fold lower than that of the compound before.

In the case of `Cc1ccc(Cn2c(C(=O)O)cc3cc(Cl)ccc32)cc1Cl`, the concentration for half-maximal inhibition (IC50) amounted to 0.12 µM. In the case of `O=C(O)c1cc2cc(-c3ccccc3)ccc2n1Cc1ccc(Cl)c(Cl)c1` it was 8.6 µM; in that of `O=C(O)c1cc2cc(Cl)ccc2n1Cc1cccc([N+](=O)[O-])c1`, 0.65 µM; in that of `O=C(O)c1cc2cc(Cl)ccc2n1Cc1ccccc1Cl`, 1.48 µM. In the case of `O=C(O)c1cc2ccccc2n1Cc1cccc(Cl)c1` it was 1.13 µM. The result for `O=C(O)c1c(Cl)c2ccccc2n1Cc1ccc(Cl)c(Cl)c1` reads 0.26 µM. Take `NC(=O)c1cc2ccccc2n1Cc1ccc(Cl)c(Cl)c1`: half-maximal inhibition (IC50) was put at 12.7 µM.

In turn, `O=C(O)c1cccc(Cn2c(C(=O)O)cc3cc(Cl)ccc32)c1` showed an IC50 of 27 µM.

Regarding `O=C(O)c1cc2cccc(Cl)c2n1Cc1ccc(Cl)c(Cl)c1`, inhibition was half-maximal at 0.34 µM (IC50). In the case of `Cc1ccc(Cn2c(C(=O)O)cc3cc(Cl)ccc32)cc1C` it was 0.22 µM.

Compound `N#Cc1c(C(=O)O)n(Cc2ccc(Cl)c(Cl)c2)c2ccccc12` yielded an IC50 of 0.3 µM.

Compound `O=C(O)c1cc2c(F)cccc2n1Cc1ccc(Cl)c(Cl)c1` showed an IC50 of 0.099 µM. Compound `O=C(O)c1cc2ccc(F)cc2n1Cc1ccc(Cl)c(Cl)c1` yielded a half-maximal inhibitory concentration (IC50) of 0.09 µM. The result for `O=C(O)c1cc2cc(F)ccc2n1Cc1ccc(Cl)c(Cl)c1` reads 0.056 µM; that for `O=C(O)c1cc2c(C(F)(F)F)cccc2n1Cc1ccc(Cl)c(Cl)c1`, 1.19 µM. In the case of `CS(=O)(=O)c1cccc2c1cc(C(=O)O)n2Cc1ccc(Cl)c(Cl)c1` it was 3.88 µM; in that of `O=C(O)c1cc2cccc(C(F)(F)F)c2n1Cc1ccc(Cl)c(Cl)c1`, 1.27 µM. The result for `COc1ccc2c(c1)cc(C(=O)O)n2Cc1ccc(Cl)c(Cl)c1` reads 0.41 µM; that for `O=C(O)c1cc2c(-c3ccccc3)cccc2n1Cc1ccc(Cl)c(Cl)c1`, 0.64 µM; that for `COc1cccc2c1cc(C(=O)O)n2Cc1ccc(Cl)c(Cl)c1`, 0.28 µM. `O=C(O)c1cc2ccc(-c3ccccc3)cc2n1Cc1ccc(Cl)c(Cl)c1` had an IC50 of 12.3 µM. In the case of `O=C(O)c1cc2cc(C(F)(F)F)ccc2n1Cc1ccc(Cl)c(Cl)c1` it was 0.17 µM. In the case of `Nc1cccc2c1cc(C(=O)O)n2Cc1ccc(Cl)c(Cl)c1` it was 0.23 µM. Regarding `O=C(O)c1cc2cc([N+](=O)[O-])ccc2n1Cc1ccc(Cl)c(Cl)c1`, inhibition was half-maximal at 0.39 µM (IC50). `O=C(NS(=O)(=O)C(F)(F)F)c1cc2cc(F)ccc2n1Cc1ccc(Cl)c(Cl)c1` gave a 50% inhibitory concentration (IC50) of 0.37 µM.

Turning to `O=C(O)c1cc2cc(Cl)ccc2n1Cc1ccc(OCc2ccccc2)cc1`, the 50% inhibitory concentration (IC50) is more than 50 µM.

`COc1cccc(Cn2c(C(=O)O)cc3cc(Cl)ccc32)c1` gave an IC50 of 3.01 µM.

As to `O=C(O)c1cc2cc(Cl)ccc2n1Cc1ccc(Cl)c(Cl)c1`, the IC50 turned out to be 0.11 µM. The result for `O=C(O)c1cc2ccccc2n1Cc1ccccc1` reads 1.7 µM. In the case of `O=C(O)c1cc2ccccc2n1Cc1ccc(-c2ccccc2)cc1` it was more than 50 µM; in that of `COc1ccc(Cn2c(C(=O)O)cc3cc(Cl)ccc32)cc1`, 5.77 µM; in that of `O=C(NS(=O)(=O)c1ccccc1)c1cc2ccccc2n1Cc1ccc(Cl)c(Cl)c1`, 4.78 µM. In the case of `N#Cc1cccc(Cn2c(C(=O)O)cc3cc(Cl)ccc32)c1` it was 2 µM; in that of `Clc1ccc(Cn2c(-c3nn[nH]n3)cc3ccccc32)cc1Cl`, 1.03 µM; in that of `O=C(O)c1cc2cccc([N+](=O)[O-])c2n1Cc1ccc(Cl)c(Cl)c1`, 10.8 µM.
